Source: patent US20250099508A1, “SYSTEMS, CELL LINES AND METHODS OF PRODUCING AND USING THE SAME” (THE REGENTS OF THE UNIVERSITY OF CALIFORNIA, priority 2022, published 2025)

Legend:
[1] = tested on: enteric ganglioid neurons; conditions: MEA neuronal firing measurements
[2] = tested on: hESC-derived stage 2 enteric ganglioid NO neurons; conditions: cFOS flow cytometry, cultures treated with epinephrine
mouse colon = experiment: Ex vivo colonic motility assay (organ bath, GIMM); conditions: for CMMC intervals at the 75th percentile relative to the untreated condition: five consecutive 10-min acquisitions, mouse colon ex vivo
VEGFRs = conditions: cited from earlier work
[3] = tested on: H9 hESC-derived enteric crestospheres (NOS1+ neurons); experiment: High-throughput screening to identify compounds that enrich NO neurons; type: cell-based, human; conditions: 1694 compounds, 1 μM, D15-D20, NOS1 staining at day 40
Source text: (§1) To evaluate the potential of hPSC-derived cultures to model human ENS development, we set out to define the mechanism of NO neuron specification in vitro. Searching for pathways that regulate NO neuron differentiation, we performed a high-throughput small molecule screen. Identifying distinct pathways and chemical modulators that promote NO neuron induction could provide insights on NO neuron development and offer a strategy for the derivation of NO neuron enriched ENS cultures. • To identify compounds that induce NO neuron differentiation, we treated enteric crestospheres with 1694 compounds in the Selleck inhibitor library™ and identified 12 hit compounds that increased the proportion of NOS1^+ neurons by at least eight folds (FIG. 6A, FIGS. S25A and B). FIG. S25 data not shown, but it describes that small molecule high-throughput screening identifies compounds that enrich NO neurons in hESC-derived ENS cultures. […] After clustering the predicted protein targets, common patterns emerged for a subset of compounds.
Day 15 H9 hESC-derived enteric crestospheres were dissociated into single cells (accutase, Stemcell Technologies, 07920, 30 min, 37° C.), resuspended in ENC medium and were transferred into 384-well plates. Plates were incubated for 2 hours for cells to attach. […]

[4] = tested on: stage 1 NOS1::GFP enteric ganglioids; experiment: NO neuron induction in stage 1 enteric ganglioids measured by flow cytometry (NOS1::GFP); type: cell-based, human; conditions: for NO neuron induction / NO neuron proportions: RTK ligand treatment, stage 1 enteric ganglioids
Source text: as §1
To determine the mechanism by which PP121 induced NO neuron enrichment in ganglioids, we used a combination of pharmacological and genetic approaches. […] Our crestosphere snRNA-seq analysis confirmed the expression of PDGFRA, PDGFRB, ERBB2 and ERBB3 while the mRNA for VEGFRs were not detectable (FIG. 6L). We evaluated the induction efficiency of NO neurons in response to PDGF (PDGFR agonist), sunitinib (PDGFR and VEGFR antagonist), NRG1 (ERBBs agonist) and sapitinib (ERBBs antagonist) (FIG. 6M). […] To genetically confirm the role of PDGFR signaling in NO neuron induction, we used CRISPR-Cas9 to knock-out PDGFRA and PDGFRB in our enteric crestospheres and analyzed the percentage of NO neurons in stage 1 ganglioids. NO neurons were […] in both PDGFRA and PDGFRB knock-out cultures further confirming the PP121 mechanism of action (FIGS. 6O and P).

EGFRs = conditions: cited from earlier work
PDGFRs = conditions: cited from earlier work
[5] = tested on: stage 1 enteric ganglioids; experiment: PP121 vs control gene expression correlation (snRNA-seq); type: cell-based, human
Source text: To compare PP121 treated and untreated stage 1 enteric ganglioids in single cell resolution, we performed snRNA-seq and combined both datasets. […] FIG. S26 data not shown, but it describes PP121 treatment enriches NO neurons without affecting their overall cellular diversity.
To compare the gene expression of control and PP121 treated cell types, neuronal subtypes and NO neuron subtypes, a subset dataset of each cell type and subtype annotation was first created. For each subset, the non-imputed average expression of all genes was then calculated for the control and PP121 treated cells using the “AverageExpression” function and natural log transformed for plotting. R^2 values comparing the control and PP121 natural log expression values were calculated from linear modeling using the “y ˜x” formula. cFOS expression screening

[6] = 6-min treatment, all five replicates

CNC[C@H](O)c1ccc(O)c(O)c1 [Epinephrine, epinephrine]
electrical firing of ganglioid neurons [1]: increased electrical firing
neuronal cFOS expression [2]: induced neuronal cFOS expression

Cc1cccc(C#Cc2ccccc2)n1 [MPEP]
CMMC intervals at the 75th percentile relative to the untreated condition (mouse colon): promising effects on lowering CMMC intervals

Nc1ncnc2c1c(-c1cnc3[nH]ccc3c1)nn2C1CCCC1 [PP121]
inhibitory activity on VEGFRs (VEGFRs): known inhibitory activity
increase of the proportion of NOS1+ neurons relative to vehicle (DMSO) [3]: highest % NOS1^+ fold increase in this subset of compounds
NOS1::GFP induction efficiency by treatment window ([4]; five-day treatment at various time points, GFP signal in stage 1 ganglioids): highest induction efficiency for cells treated during day 15-20
NO neuron induction efficiency, dose dependence ([4]; flow cytometry): dose-dependent effect
inhibitory activity on EGFRs (EGFRs): known inhibitory activity
inhibitory activity on PDGFRs (PDGFRs): known inhibitory activity
abundance of neuronal subtypes ([5]; merged control and PP121 treated neurons, snRNA-seq): enriched cultures for neuronal subtypes EN D and H
abundance of nitrergic neuron subtypes ([5]; merged control and PP121 treated nitrergic neurons): enrichment for Nitrergic B

O=C1CCc2ccc(OCCCCN3CCN(c4cccc(Cl)c4Cl)CC3)cc2N1 [aripiprazole]
CMMC intervals at the 75th percentile relative to the untreated condition (mouse colon): promising effects on lowering CMMC intervals

Cc1cccc([C@H](C)c2cnc[nH]2)c1C [dexmedetomidine]
average duration of LCEs (mouse colon; [6]): increasing trend in their average duration
total number of longitudinal contractile events (LCEs) (mouse colon; [6]): decrease in the total number of LCEs
effects on LCEs after the drug removal (mouse colon; Krebs wash after drug): reversed after the drug removal
effects on LCEs with L-NAME co-treatment (mouse colon; L-NAME co-treatment): blocked by L-NAME co-treatment
effect on CMMC intervals with simultaneous L-NAME (mouse colon; dexmedetomidine+L-NAME simultaneously): absent
CMMC intervals at the 75th percentile relative to the untreated condition (mouse colon): promising effects on lowering CMMC intervals
CMMC intervals (mouse colon; sequential 6-min acquisitions, five sample pairs, drug alone): decreased CMMC intervals in four out of five colon samples
slow waves (SW) (mouse colon; sequential drug treatment): not affected

O=C1CCC[C@@H]2[C@H]3CCCN4CCC[C@@H](CN12)[C@@H]34 [matrine]
CMMC intervals at the 75th percentile relative to the untreated condition (mouse colon): promising effects on lowering CMMC intervals

CNC(=O)CN1CCC(Oc2cc3c(Nc4cccc(Cl)c4F)ncnc3cc2OC)CC1 [sapitinib]
NO neuron induction / NO neuron proportions [4]: no significant effect

PDGF
NO neuron induction / NO neuron proportions [4]: lower
